According to patent publication US6077503A, “Skin whitener composition containing mercaptodextran” (Amway Corporation, priority 1997, dated 2000):

Test system: tyrosinase from mushroom
Experiment: Inhibition of mushroom tyrosinase (tyrosine substrate, absorbance at 475 nm after 24 hours)
Type: biochemical
Protocol: A buffer solution A containing 50 mM sodium acetate was prepared to yield a 6.8 pH. A tryosine solution was prepared by adding 15 mg of tyrosine to 100 ml of buffer solution A. A tyrosinase solution was prepared by adding 11.5 mg tyrosinase from mushroom (Serva Art. 37618, 72 μ/mg) in 1.2 ml. of buffer solution A. A test tube was charged with 2.7 ml of buffer solution A and 0.4 ml. water to define a blank. Similarly, another test tube was charged with 2.7 ml. of the tyrosine solution, 0.3 ml of water, and 0.1 ml of the tyrosinase solution to define a reference. The samples were stored for 24 hours at a temperature between 23° C. and 25° C. The absorbency of the reference was measured at 475 nm with a spectrophotometer and the absorbancy was set to zero. […] A test tube was charged with 2.7 ml of the tyrosine solution, 0.1 ml. of the tyrosinase solution and 1% mercaptodextran having a molecular weight of about 10,000 from Pharmacia Biotech. The sample was stored for 24 hours at a temperature between 23° C. and 25° C. The absorbancy of was measured at 24 hours. The percent inhibition of the tyrosinase of was calculated as follows: [formula]

[1] = Example 1 / Table 1, whitener 1.0 wt %, 24 hours at 23-25° C., pH 6.8

Row | Structure (SMILES) | Percent inhibition (24 hours) [1] [%] | Percent inhibition (24 hours) (Example 2 / Table 2, whitening agent 1.0 wt %, 24 hours) [%]
1 | O=c1oc2cc(O)ccc2s1 [Tioxolone] | 0.0 | –
2 | O=c1cc(CO)occ1O [Kojic Acid] | 87.8 | 90.9
